Assay results reported in paper PMC5923123, “In Vitro and In Vivo Efficacy of a Novel and Long-Acting Fungicidal Azole, PC1244, on Aspergillus fumigatus Infection” (Antimicrobial Agents and Chemotherapy, 2018).
≈ marks a conversion by molar mass, not a printed value.

Key:
A. fumigatus NCPF2010 = experiment: EUCAST broth microdilution growth inhibition (OD 530 nm, 384-well); format: cell-based; details: Aspergillus fumigatus, strain NCPF2010 (ITC-susceptible), 48 h, range tested 0.002 to 1 μg/ml
Procedure: (§1) The antifungal activities of the test compounds against A. fumigatus strains (itraconazole [ITC]-susceptible strains NCPF2010, AF294, and AF293; ITC-resistant strains AF72 and AF91) were calculated from growth curves generated by spectrophotometric analysis and compared to the activities against positive and negative controls.

A. fumigatus AF294 = experiment: as above; format: cell-based; details: Aspergillus fumigatus, strain AF294 (ITC-susceptible), 48 h
Procedure: as §1

A. fumigatus AF293 = experiment: as above; format: cell-based; details: Aspergillus fumigatus, strain AF293 (ITC-susceptible), 48 h
Procedure: as §1

A. fumigatus AF91 = experiment: as above; format: cell-based; details: Aspergillus fumigatus, strain AF91 (ITC-resistant), 48 h
Procedure: as §1

A. fumigatus AF72 = experiment: as above; format: cell-based; details: Aspergillus fumigatus, strain AF72 (ITC-resistant), 48 h
Procedure: as §1

[1] = tested on: A. fumigatus (ATCC 13073 [strain NIH 5233]); experiment: MIC against the strain used in vivo; format: cell-based; details: Aspergillus fumigatus, ATCC13073; strain ATCC 13073; read-out: MIC
A. fumigatus isolates = tested on: A. fumigatus isolates; design: method as in PMID 12202554; details: MFC = lowest dilution yielding less than 3 colonies; cited from earlier work

IC50 (A. fumigatus NCPF2010) [µg/mL] | IC90 (A. fumigatus NCPF2010) [µg/mL] | IC50 (A. fumigatus AF294) [µg/mL] | IC90 (A. fumigatus AF294) [µg/mL] | IC50 (A. fumigatus AF293) [µg/mL] | IC90 (A. fumigatus AF293) [µg/mL] | IC50 (A. fumigatus AF91) [µg/mL] | IC90 (A. fumigatus AF91) [µg/mL] | IC50 (A. fumigatus AF72) [µg/mL] | IC90 (A. fumigatus AF72) [µg/mL] | SMILES | MIC [1] [µg/mL] | range of MFCs for inhibition of 90% of isolates tested (MFC90) (A. fumigatus isolates) [µg/mL]
0.2 (≈ 0.216 µM) | 0.62 (≈ 0.671 µM) | 0.21 (≈ 0.227 µM) | 0.79 (≈ 0.855 µM) | 0.24 (≈ 0.26 µM) | 0.85 (≈ 0.92 µM) | 0.28 (≈ 0.303 µM) | 0.75 (≈ 0.812 µM) | 0.12 (≈ 0.13 µM) | 0.42 (≈ 0.455 µM) | C[C@@H]1[C@H](O)[C@@H](C)/C=C/C=C/C=C/C=C/C=C/C=C/C=C/[C@H](O[C@@H]2O[C@H](C)[C@@H](O)[C@H](N)[C@@H]2O)C[C@@H]2O[C@](O)(C[C@@H](O)C[C@@H](O)[C@H](O)CC[C@@H](O)C[C@@H](O)CC(=O)O[C@H]1C)C[C@H](O)[C@H]2C(=O)O [Amphotericin B, amphotericin B] |  | 
0.065 (≈ 0.0595 µM) | > 1 | > 1 | > 1 | > 1 | > 1 | 0.11 (≈ 0.101 µM) | > 1 | 0.065 (≈ 0.0595 µM) | > 1 | CC[C@H](C)C[C@H](C)CCCCCCCCC(=O)N[C@H]1C[C@@H](O)[C@@H](NCCN)NC(=O)[C@@H]2[C@@H](O)CCN2C(=O)[C@H]([C@H](O)CCN)NC(=O)[C@H]([C@H](O)[C@@H](O)c2ccc(O)cc2)NC(=O)[C@@H]2C[C@@H](O)CN2C(=O)[C@H]([C@@H](C)O)NC1=O [Caspofungin, caspofungin] |  | 

SMILES | IC50 (A. fumigatus NCPF2010) [µg/mL] | IC90 (A. fumigatus NCPF2010) [µg/mL] | IC50 (A. fumigatus AF294) [µg/mL] | IC90 (A. fumigatus AF294) [µg/mL] | IC50 (A. fumigatus AF293) [µg/mL] | IC90 (A. fumigatus AF293) [µg/mL] | IC50 (A. fumigatus AF91) [µg/mL] | IC90 (A. fumigatus AF91) [µg/mL] | IC50 (A. fumigatus AF72) [µg/mL] | IC90 (A. fumigatus AF72) [µg/mL] | MIC [1] [µg/mL] | range of MFCs for inhibition of 90% of isolates tested (MFC90) (A. fumigatus isolates) [µg/mL]
CCC(C)n1ncn(-c2ccc(N3CCN(c4ccc(OCC5COC(Cn6cncn6)(c6ccc(Cl)cc6Cl)O5)cc4)CC3)cc2)c1=O (centres unmarked) [Itraconazole, itraconazole] | 0.037 (≈ 0.0524 µM) | 0.054 (≈ 0.0765 µM) | 0.041 (≈ 0.0581 µM) | 0.052 (≈ 0.0737 µM) | 0.032 (≈ 0.0453 µM) | 0.23 (≈ 0.326 µM) | 0.22 (≈ 0.312 µM) | > 1 | 0.31 (≈ 0.439 µM) | > 1 | 0.5 (≈ 0.709 µM) | 0.2 to 4
